Assay type in all cases: biochemical
The target of one test is T1, JAK1 (Homo sapiens, UniProt P23458).
T1 construct: purchased Invitrogen Corporation, Carlsbad, Calif; PV4775
In words: JAK1 Inhibition Assay (Omnia kinase fluorescence peptide substrate assay). As to conditions: averaged IC50 ranges; assay of Example B; 40 μM (Km app) or 1 mM ATP, 15 nM JAK1.

The next test addresses T2, JAK3 (Homo sapiens, UniProt P52333).
T2 construct: purchased Invitrogen Corporation, Carlsbad, Calif; PV4080
T2 sequence (P52333 1-1124): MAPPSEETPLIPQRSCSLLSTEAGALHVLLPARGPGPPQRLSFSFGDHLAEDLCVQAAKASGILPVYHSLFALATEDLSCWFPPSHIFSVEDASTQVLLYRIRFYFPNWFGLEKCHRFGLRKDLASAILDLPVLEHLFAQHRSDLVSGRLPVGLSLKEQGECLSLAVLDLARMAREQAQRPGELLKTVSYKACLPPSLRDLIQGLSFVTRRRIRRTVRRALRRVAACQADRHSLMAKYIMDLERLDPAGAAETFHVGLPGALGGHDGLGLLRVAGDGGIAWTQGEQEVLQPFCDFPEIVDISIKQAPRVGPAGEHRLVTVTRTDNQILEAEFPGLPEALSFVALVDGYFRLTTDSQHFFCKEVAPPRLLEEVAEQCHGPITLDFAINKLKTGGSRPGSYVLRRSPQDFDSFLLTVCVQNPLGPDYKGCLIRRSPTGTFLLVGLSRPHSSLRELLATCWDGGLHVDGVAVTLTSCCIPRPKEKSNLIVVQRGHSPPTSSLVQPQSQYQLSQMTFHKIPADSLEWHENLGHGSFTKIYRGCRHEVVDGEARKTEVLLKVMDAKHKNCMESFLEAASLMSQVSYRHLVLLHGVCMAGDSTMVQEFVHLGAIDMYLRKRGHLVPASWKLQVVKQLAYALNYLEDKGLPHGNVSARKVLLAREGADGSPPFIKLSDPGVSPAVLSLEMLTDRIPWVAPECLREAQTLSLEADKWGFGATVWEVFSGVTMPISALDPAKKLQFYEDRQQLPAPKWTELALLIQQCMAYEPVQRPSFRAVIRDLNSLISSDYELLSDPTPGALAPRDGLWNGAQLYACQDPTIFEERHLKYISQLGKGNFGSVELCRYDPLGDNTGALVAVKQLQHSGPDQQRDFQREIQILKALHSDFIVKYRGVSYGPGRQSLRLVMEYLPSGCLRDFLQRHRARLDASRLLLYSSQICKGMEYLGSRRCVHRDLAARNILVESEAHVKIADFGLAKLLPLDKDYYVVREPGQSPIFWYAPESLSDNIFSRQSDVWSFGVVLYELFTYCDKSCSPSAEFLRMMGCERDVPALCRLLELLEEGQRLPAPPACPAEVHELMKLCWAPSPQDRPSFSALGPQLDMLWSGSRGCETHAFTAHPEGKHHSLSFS
Nature of the test: JAK3 Inhibition Assay (Omnia kinase fluorescence peptide substrate assay). As to conditions: averaged IC50 ranges; assay of Example D; 10 μM (Km app) or 1 mM ATP, 2.5 nM JAK3. The gist of the method: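 Kinase at 2.5 nM with 10 µM Omnia Y7 peptide and 10 µM (Km app) or 1 mM ATP in 25 mM HEPES pH 7.4, 10 mM MgCl2, 1 mM DTT, 0.01% Triton X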

Another test has as its target T3, Human Tyk2 kinase domain (Homo sapiens, UniProt P29597).
T3 construct: comprising amino acids 886 to 1187 with 10 additional histidine residues; 10xHis (histidine tag) (C, cleaved yes); made in house
T3 sequence (P29597 886-1187): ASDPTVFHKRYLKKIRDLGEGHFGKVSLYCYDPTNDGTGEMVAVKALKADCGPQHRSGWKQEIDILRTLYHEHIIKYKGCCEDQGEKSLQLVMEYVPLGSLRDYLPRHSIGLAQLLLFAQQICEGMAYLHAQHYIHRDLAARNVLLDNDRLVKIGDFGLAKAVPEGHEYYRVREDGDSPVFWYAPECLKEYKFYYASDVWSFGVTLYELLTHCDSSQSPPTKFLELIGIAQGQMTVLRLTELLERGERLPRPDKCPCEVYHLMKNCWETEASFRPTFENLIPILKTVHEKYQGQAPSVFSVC
Nature of the test: Tyk2 Inhibition Assay (Omnia kinase fluorescence peptide substrate assay). As to conditions: averaged IC50 ranges; assay of Example A; 10 μM (Km app) or 1 mM ATP, 2 nM Tyk2. The gist of the method:
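2 nM His-tag-cleaved kinase domain (aa 886–1187) with 8 μM Omnia Y12 peptide, 10 μM (Km app) or 1 mM ATP, pH 7.4 HEPES/10 mM MgCl2, 2% DMSO. Fluorescence (ex 360/em 485 nm) every 50 s for 45 min; IC50 from 4-parameter fit of POC, top dose 10 μM.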

Another test deals with T4, JAK2 (Homo sapiens, UniProt O60674).
T4 construct: purchased Invitrogen Corporation, Carlsbad, Calif; PV4288
In words: JAK2 Inhibition Assay (Omnia kinase fluorescence peptide substrate assay). To be noted: averaged IC50 ranges; assay of Example C; 25 μM (Km app) or 1 mM ATP, 5 nM JAK2. In a few lines: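 5 nM JAK2 phosphorylated 10 μM Omnia Y7 peptide with ATP at 25 μM (Km app) or 1 mM, in 25 mM HEPES pH 7.4, 10 mM MgCl2, 0.01% Triton X-100, 1 mM DTT, 2% DMSO. Fluorescence (360/485 nm) was read every 50 s for 45 min. 10-point 3-fold series from 10 μM; POC versus uninhibited and background controls, 4-parameter logistic IC50.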

Experimental findings from US8962596B2 (Array BioPharma Inc., priority 2010, dated 2015) are described below.

The term IC50 denotes the concentration at which inhibition is half-maximal. A low value points to higher potency.

Bounds are passed on as bounds.

T1 sequence (P23458 whole entry): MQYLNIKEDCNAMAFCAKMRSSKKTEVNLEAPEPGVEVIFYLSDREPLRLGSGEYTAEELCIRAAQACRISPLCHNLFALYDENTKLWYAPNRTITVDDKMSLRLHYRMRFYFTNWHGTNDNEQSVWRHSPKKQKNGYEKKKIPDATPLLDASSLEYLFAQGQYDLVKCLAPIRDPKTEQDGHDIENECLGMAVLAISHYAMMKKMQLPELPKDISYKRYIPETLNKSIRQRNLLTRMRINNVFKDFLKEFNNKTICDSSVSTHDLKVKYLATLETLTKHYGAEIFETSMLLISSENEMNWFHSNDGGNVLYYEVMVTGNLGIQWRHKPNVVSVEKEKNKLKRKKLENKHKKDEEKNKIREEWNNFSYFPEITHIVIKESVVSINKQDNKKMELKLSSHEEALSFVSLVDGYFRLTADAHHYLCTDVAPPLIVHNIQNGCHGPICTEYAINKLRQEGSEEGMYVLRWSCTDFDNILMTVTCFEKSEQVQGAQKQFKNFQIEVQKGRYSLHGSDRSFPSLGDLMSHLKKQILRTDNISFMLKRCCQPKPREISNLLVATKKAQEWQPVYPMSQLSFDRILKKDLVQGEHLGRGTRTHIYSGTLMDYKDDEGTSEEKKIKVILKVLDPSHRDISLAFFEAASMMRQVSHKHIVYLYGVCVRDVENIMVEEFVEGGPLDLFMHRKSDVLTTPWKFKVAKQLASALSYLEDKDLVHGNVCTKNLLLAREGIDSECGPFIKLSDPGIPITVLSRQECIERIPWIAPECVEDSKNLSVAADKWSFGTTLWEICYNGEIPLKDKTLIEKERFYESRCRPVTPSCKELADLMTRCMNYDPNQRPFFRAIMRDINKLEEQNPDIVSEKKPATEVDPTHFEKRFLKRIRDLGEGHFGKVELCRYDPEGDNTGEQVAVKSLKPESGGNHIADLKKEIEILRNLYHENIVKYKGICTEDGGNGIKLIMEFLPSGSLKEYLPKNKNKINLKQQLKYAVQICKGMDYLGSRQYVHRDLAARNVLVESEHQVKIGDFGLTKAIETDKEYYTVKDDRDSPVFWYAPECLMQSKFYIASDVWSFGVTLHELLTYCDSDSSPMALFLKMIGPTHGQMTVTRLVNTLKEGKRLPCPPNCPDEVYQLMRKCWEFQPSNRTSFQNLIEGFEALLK
T4 sequence (O60674 whole entry): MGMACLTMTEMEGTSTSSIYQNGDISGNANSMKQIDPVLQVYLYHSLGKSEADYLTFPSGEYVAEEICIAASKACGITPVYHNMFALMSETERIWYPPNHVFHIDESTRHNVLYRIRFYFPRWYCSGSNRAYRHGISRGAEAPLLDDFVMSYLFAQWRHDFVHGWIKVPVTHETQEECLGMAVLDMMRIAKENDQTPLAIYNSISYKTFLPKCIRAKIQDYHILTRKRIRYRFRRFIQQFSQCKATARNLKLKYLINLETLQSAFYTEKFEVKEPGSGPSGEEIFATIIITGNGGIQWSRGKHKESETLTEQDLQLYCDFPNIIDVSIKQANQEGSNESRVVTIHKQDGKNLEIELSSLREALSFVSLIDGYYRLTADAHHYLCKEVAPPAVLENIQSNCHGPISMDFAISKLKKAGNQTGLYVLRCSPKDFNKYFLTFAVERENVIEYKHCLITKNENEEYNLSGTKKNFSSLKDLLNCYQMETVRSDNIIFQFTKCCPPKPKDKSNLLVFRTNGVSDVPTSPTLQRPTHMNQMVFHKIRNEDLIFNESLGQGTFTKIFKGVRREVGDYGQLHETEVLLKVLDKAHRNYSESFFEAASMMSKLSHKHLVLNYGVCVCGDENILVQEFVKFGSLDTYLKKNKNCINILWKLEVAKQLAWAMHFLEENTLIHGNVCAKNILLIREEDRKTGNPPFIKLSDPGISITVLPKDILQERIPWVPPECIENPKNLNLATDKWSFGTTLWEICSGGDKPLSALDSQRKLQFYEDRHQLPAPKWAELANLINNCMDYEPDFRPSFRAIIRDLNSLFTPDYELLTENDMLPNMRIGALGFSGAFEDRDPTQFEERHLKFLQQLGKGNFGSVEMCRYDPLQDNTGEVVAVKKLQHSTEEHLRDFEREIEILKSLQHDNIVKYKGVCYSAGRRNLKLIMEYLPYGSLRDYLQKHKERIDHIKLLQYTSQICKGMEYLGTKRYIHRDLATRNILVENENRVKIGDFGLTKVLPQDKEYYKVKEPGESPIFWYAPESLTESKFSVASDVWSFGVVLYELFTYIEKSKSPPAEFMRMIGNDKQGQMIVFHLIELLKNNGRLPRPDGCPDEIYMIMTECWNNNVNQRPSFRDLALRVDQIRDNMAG

Consider `CC(C)n1cc(-c2cc3nccn3c(-c3cnn(C4(CC#N)CN(CC(F)(F)F)C4)c3)n2)cn1` [Example 100, 2-(3-(4-(7-(1-Isopropyl-1-H-pyrazol-4-yl)imidazo[1,2-c]pyrimidin-5-yl)-1H-pyrazol-1-yl)-1-(2,2,2-trifluoroethyl)azetidin-3-yl)acetonitrile], for which the IC50 against JAK1 was 100 to 1000 nM; against JAK3, greater than 1000 nM; against Human Tyk2 kinase domain it was less than 10 nM; against JAK2, 10 to 100 nM.
The like results for `CC(C)n1cc(-c2cc3nccn3c(-c3cnn(C4(CC#N)CN(S(=O)(=O)C(F)(F)F)C4)c3)n2)cn1` [Example 101, 2-(3-(4-(7-(1-Isopropyl-1H-pyrazol-4-yl)imidazo[1,2-c]pyrimidin-5-yl)-1H-pyrazol-1-yl)-1-(trifluoromethylsulfonyl)azetidine-3-yl)acetonitrile] were, in that order, less than 10 nM, 100 to 1000 nM, less than 10 nM and less than 10 nM.
The like results for `Cc1ncc(-c2cc3nccn3c(-c3cnn(C4(CC#N)CN(CC(F)(F)F)C4)c3)n2)s1` [Example 102, 2-(3-(4-(7-(2-Methylthiazol-5-yl)imidazo[1,2-c]pyrimidin-5-yl)-1H-pyrazol-1-yl)-1-(2,2,2-trifluoroethyl)azetidin-3-yl)acetonitrile] were, in that order, 100 to 1000 nM, greater than 1000 nM, 10 to 100 nM and 100 to 1000 nM.
The like results for `N#CCC1(n2cc(-c3nc(-c4cnn(C5CCC5)c4)cc4nccn34)cn2)CN(CC(F)(F)F)C1` [Example 103, 2-(3-(4-(7-(1-Cyclobutyl-1H-pyrazol-4-yl)imidazo[1,2-c]pyrimidin-5-yl)-1H-pyrazol-1-yl)-1-(2,2,2-trifluoroethyl)azetidin-3-yl)acetonitrile] were, in that order, 10 to 100 nM, 100 to 1000 nM, less than 10 nM and 10 to 100 nM.
`CCn1cc(-c2cc3nccn3c(-c3cnn(C4(CC#N)CN(CC(F)(F)F)C4)c3)n2)cn1` [Example 104, 2-(3-(4-(7-(1-Ethyl-1H-pyrazol-4-yl)imidazo[1,2-c]pyrimidin-5-yl)-1H-pyrazol-1-yl)-1-(2,2,2-trifluoroethyl)azetidin-3-yl)acetonitrile]: the 50% inhibitory concentration (IC50) was 100 to 1000 nM at JAK1, greater than 1000 nM on JAK3, less than 10 nM on Human Tyk2 kinase domain and 10 to 100 nM on JAK2.
The like results for `N#CCC1(n2cc(-c3nc(-c4cnn(C5COC5)c4)cc4nccn34)cn2)CN(CC(F)(F)F)C1` [Example 105, 2-(3-(4-(7-(1-(Oxetan-3-yl)-1H-pyrazol-4-yl)imidazo[1,2-c]pyrimidin-5-yl)-1H-pyrazol-1-yl)-1-(2,2,2-trifluoroethyl)azetidin-3-yl)acetonitrile] were, in that order, 100 to 1000 nM, greater than 1000 nM, less than 10 nM and 10 to 100 nM.
With `Cc1nn(CCC#N)cc1-c1nc(-c2cnn(C)c2)cc2nccn12` [Example 106, 3-(3-methyl-4-(7-(1-methyl-1H-pyrazol-4-yl)imidazo[1,2-c]pyrimidin-5-yl)-1H-pyrazol-1-yl)propanenitrile], the IC50 was greater than 1000 nM at JAK1, greater than 1000 nM against JAK3, 100 to 1000 nM on Human Tyk2 kinase domain and 100 to 1000 nM at JAK2.
With `Cc1c(-c2nc(-c3cnn(C)c3)cc3nccn23)cnn1CCC#N` [Example 107, 3-(5-methyl-4-(7-(1-methyl-1H-pyrazol-4-yl)imidazo[1,2-c]pyrimidin-5-yl)-1H-pyrazol-1-yl)propanenitrile], the IC50 against JAK1 is greater than 1000 nM; on JAK3, greater than 1000 nM; against Human Tyk2 kinase domain, 100 to 1000 nM; against JAK2, greater than 1000 nM.
Take `Cc1nn(C2(CC#N)CN(CC(F)(F)F)C2)cc1-c1nc(-c2cnn(C)c2)cc2nccn12` [Example 108, 2-(3-(3-methyl-4-(7-(1-methyl-1H-pyrazol-4-yl)imidazo[1,2-c]pyrimidin-5-yl)-1H-pyrazol-1-yl)-1-(2,2,2-trifluoroethyl)azetidin-3-yl)acetonitrile]: the IC50 against JAK1 is greater than 1000 nM; at JAK3 it was greater than 1000 nM; at Human Tyk2 kinase domain, 10 to 100 nM; on JAK2 it was 100 to 1000 nM.
On to `Cc1nn(C(CC#N)C2CC2)cc1-c1nc(-c2cnn(C)c2)cc2nccn12` (stereo not drawn) [Example 109, 3-Cyclopropyl-3-(3-methyl-4-(7-(1-methyl-1H-pyrazol-4-yl)imidazo[1,2-c]pyrimidin-5-yl)-1H-pyrazol-1-yl)propanenitrile], for which the IC50 was greater than 1000 nM at JAK1, greater than 1000 nM against JAK3, 10 to 100 nM against Human Tyk2 kinase domain and 100 to 1000 nM on JAK2.
Take `CN1CCC(c2ccc(-c3cc4nccn4c(-c4cnn(C(CC#N)C5CCCC5)c4)n3)cc2)CC1` (stereo not drawn) [Example 110, 3-Cyclopentyl-3-(4-(7-(4-(1-methylpiperidin-4-yl)phenyl)imidazo[1,2-c]pyrimidin-5-yl)-1H-pyrazol-1-yl)propanenitrile]: the concentration for half-maximal inhibition (IC50) at JAK1 was 10 to 100 nM; on JAK3, 100 to 1000 nM; on Human Tyk2 kinase domain it was less than 10 nM; against JAK2 it was 10 to 100 nM.
`N#CCC(C1CCCC1)n1cc(-c2nc(-c3ccc(N4CCOCC4)cc3)cc3nccn23)cn1` (stereo not drawn) [Example 113, 3-Cyclopentyl-3-(4-(7-(4-morpholinophenyl)imidazo[1,2-c]pyrimidin-5-yl)-1H-pyrazol-1-yl)propanenitrile]: the half-inhibitory concentration (IC50) against JAK1 is 10 to 100 nM; against JAK3, 100 to 1000 nM; against Human Tyk2 kinase domain it was less than 10 nM; at JAK2 it was 10 to 100 nM.
Turning to `CC(C)(CC#N)n1cc(-c2nc(-c3ccc(N4CCOCC4)cc3)cc3nccn23)cn1` [Example 116, 3-methyl-3-(4-(7-(4-morpholinophenyl)imidazo[1,2-c]pyrimidin-5-yl)-1H-pyrazol-1-yl)butanenitrile], the IC50 at JAK1 is 100 to 1000 nM; on JAK3, greater than 1000 nM; at Human Tyk2 kinase domain, 10 to 100 nM; on JAK2, 100 to 1000 nM.
Regarding `N#CCC(C1CC1)n1cc(-c2nc(-c3ccc(N4CCOCC4)cc3)cc3nccn23)cn1` (stereo not drawn) [Example 117, 3-cyclopropyl-3-(4-(7-(4-morpholinophenyl)imidazo[1,2-c]pyrimidin-5-yl)-1H-pyrazol-1-yl)propanenitrile], the IC50 was 10 to 100 nM against JAK1, 100 to 1000 nM at JAK3, less than 10 nM against Human Tyk2 kinase domain and 10 to 100 nM against JAK2.
With `CC(CC#N)n1cc(-c2nc(-c3ccc(N4CCOCC4)cc3)cc3nccn23)cn1` (stereo not drawn) [Example 118, 3-(4-(7-(4-morpholinophenyl)imidazo[1,2-c]pyrimidin-5-yl)-1H-pyrazol-1-yl)butanenitrile], the IC50 against JAK1 was 10 to 100 nM; against JAK3 it was 100 to 1000 nM; against Human Tyk2 kinase domain, less than 10 nM; against JAK2, 10 to 100 nM.
